According to ChEMBL document CHEMBL3997786, “Development of Dihydroxyphenyl Sulfonylisoindoline Derivatives as Liver-Targeting Pyruvate Dehydrogenase Kinase Inhibitors” (J Med Chem, 2017):

Columns and labels:
[1] = target: T1, [Pyruvate dehydrogenase (acetyl-transferring)] kinase isozyme 2, mitochondrial (Homo sapiens, UniProt Q15119); experiment: Inhibition of N-terminal His6-SUMO tagged recombinant human PDK2 using [32P]-gamma-ATP assessed as decrease in incorporation of radioactivity into E1 protein incubated for 2 mins
[2] = target: T1, [Pyruvate dehydrogenase (acetyl-transferring)] kinase isozyme 2, mitochondrial; experiment: Binding affinity to N-terminal His6-SUMO tagged recombinant human PDK2 by isothermal titration calorimetry
[3] = test system: Plasma; experiment: Terminal half life in CD1 mouse plasma at 70 mg/kg, ip by LC-MS/MS analysis; format: ADME, organism-based; conditions: in vivo
[4] = test system: Plasma; experiment: Cmax in CD1 mouse plasma at 70 mg/kg, ip by LC-MS/MS analysis; format: ADME, organism-based; design: dose 70 mg/kg, route intraperitoneal; conditions: in vivo
[5] = test system: Plasma; experiment: Tmax in CD1 mouse plasma at 70 mg/kg, ip by LC-MS/MS analysis; format: ADME, organism-based; conditions: in vivo
[6] = test system: Plasma; experiment: AUClast in CD1 mouse plasma at 70 mg/kg, ip by LC-MS/MS analysis; format: ADME, organism-based; design: dose 70 mg/kg, route intraperitoneal, time 0 - last; conditions: in vivo
[7] = test system: Plasma; experiment: Apparent volume of distribution during terminal phase in CD1 mouse plasma at 70 mg/kg, ip by LC-MS/MS analysis; format: ADME, organism-based; conditions: in vivo
[8] = Apparent clearance in CD1 mouse plasma at 70 mg/kg, ip by LC-MS/MS analysis; format: ADME, organism-based
[9] = test system: Liver; experiment: Terminal half life in CD1 mouse liver at 70 mg/kg, ip by LC-MS/MS analysis; format: ADME, organism-based; conditions: in vivo
[10] = test system: Liver; experiment: Cmax in CD1 mouse liver at 70 mg/kg, ip by LC-MS/MS analysis; format: ADME, organism-based; design: dose 70 mg/kg, route intraperitoneal; conditions: in vivo
[11] = test system: Liver; experiment: Tmax in CD1 mouse liver at 70 mg/kg, ip by LC-MS/MS analysis; format: ADME, organism-based; conditions: in vivo
[12] = test system: Liver; experiment: AUClast in CD1 mouse liver at 70 mg/kg, ip by LC-MS/MS analysis; format: ADME, organism-based; conditions: in vivo
[13] = test system: Liver; experiment: Apparent volume of distribution during terminal phase in CD1 mouse liver at 70 mg/kg, ip by LC-MS/MS analysis; format: ADME, organism-based; conditions: in vivo
[14] = test system: Liver; experiment: Apparent clearance in CD1 mouse liver at 70 mg/kg, ip by LC-MS/MS analysis; format: ADME, organism-based; conditions: in vivo
[15] = Terminal half life in CD1 mouse muscle at 70 mg/kg, ip by LC-MS/MS analysis; format: ADME, organism-based, Muscle tissue; conditions: read-out: beta t1/2
[16] = Cmax in CD1 mouse muscle at 70 mg/kg, ip by LC-MS/MS analysis; format: ADME, organism-based, Muscle tissue; design: dose 70 mg/kg, route intraperitoneal
[17] = Tmax in CD1 mouse muscle at 70 mg/kg, ip by LC-MS/MS analysis; format: ADME, organism-based, Muscle tissue
[18] = AUClast in CD1 mouse muscle at 70 mg/kg, ip by LC-MS/MS analysis; format: ADME, organism-based, Muscle tissue; conditions: in vivo
[19] = Apparent volume of distribution during terminal phase in CD1 mouse muscle at 70 mg/kg, ip by LC-MS/MS analysis; format: ADME, organism-based, Muscle tissue; conditions: in vivo
[20] = Apparent clearance in CD1 mouse muscle at 70 mg/kg, ip by LC-MS/MS analysis; format: ADME, organism-based, Muscle tissue; conditions: in vivo

SMILES: O=C(O)CC(=O)N1CCC(Nc2ccc3c(c2)CN(S(=O)(=O)c2ccc(O)cc2O)C3)CC1
- IC50 [1]: 1660 nM

SMILES: O=S(=O)(c1ccc(O)cc1O)N1Cc2ccc(O)cc2C1
- IC50 [1]: 570 nM

SMILES: O=S(=O)(c1ccc(O)cc1O)N1Cc2ccc(NC3CCN(CC(O)CO)CC3)cc2C1 (configuration not stated)
- IC50 [1]: 154 nM

SMILES: NC(=O)C[C@H](N)C(=O)N1CCCN(c2ccc3c(c2)CN(S(=O)(=O)c2ccc(O)cc2O)C3)CC1
- IC50 [1]: 1510 nM

SMILES: O=C(O)CCCCCCCC(=O)N1CCC(Nc2ccc3c(c2)CN(S(=O)(=O)c2ccc(O)cc2O)C3)CC1
- IC50 [1]: 629 nM

SMILES: O=S(=O)(c1ccc(O)cc1O)N1Cc2ccc(NC3CCCCC3)cc2C1
- IC50 [1]: 1200 nM

SMILES: NCCCC[C@H](N)C(=O)N1CCC(Nc2ccc3c(c2)CN(S(=O)(=O)c2ccc(O)cc2O)C3)CC1
- IC50 [1]: 580 nM

SMILES: NC(=O)C[C@H](N)C(=O)NCCCNc1ccc2c(c1)CN(S(=O)(=O)c1ccc(O)cc1O)C2
- IC50 [1]: 67 nM

SMILES: NC(=O)C[C@H](N)C(=O)N1CC(Nc2ccc3c(c2)CN(S(=O)(=O)c2ccc(O)cc2O)C3)C1
- IC50 [1]: 65 nM

SMILES: C[C@H](O)[C@H](N)C(=O)N1CCC(Nc2ccc3c(c2)CN(S(=O)(=O)c2ccc(O)cc2O)C3)CC1
- IC50 [1]: 91 nM

SMILES: O=S(=O)(c1ccc(O)cc1O)N1Cc2ccc(NC3CCN(Cc4ccccc4)CC3)cc2C1
- IC50 [1]: 416 nM

SMILES: O=S(=O)(c1ccc(O)cc1O)N1Cc2ccc(N3CCNCC3)cc2C1
- IC50 [1]: 1350 nM

SMILES: O=S(=O)(c1ccc(O)cc1O)N1Cc2cc(O)cc(O)c2C1
- IC50 [1]: 456 nM
- Kd [2]: 156 nM
- beta t1/2 [3]: 5.65 h
- Cmax [4]: 29000 ng/mL
- Tmax [5]: 0.167 h
- AUClast [6]: 1494106 ng·min/mL
- Vz/F [7]: 679 mL
- CL/F [8]: 1.39 mL/min
- beta t1/2 [9]: 1.67 h
- Cmax [10]: 5707 ng/g
- Tmax [11]: 0.167 h
- AUClast [12]: 245088 ng·min/g
- Vz/F [13]: 1174 g
- CL/F [14]: 8.13 g/min
- half-life [15]: 8.57 h
- Cmax [16]: 17400 ng/g
- Tmax [17]: 0.5 h
- AUClast [18]: 885986 ng·min/g
- Vz/F [19]: 1720 g
- CL/F [20]: 2.32 g/min
